{
  "source": "paper PMC12064818",
  "about": "“A general assay platform to study protein pharmacology using ligand-dependent structural dynamics” (Nature Communications, 2025)",
  "key": {"[1]": {"target": "firefly luciferase (FLuc) (Photinus pyralis, UniProt P08659)", "sequence (P08659 whole entry)": "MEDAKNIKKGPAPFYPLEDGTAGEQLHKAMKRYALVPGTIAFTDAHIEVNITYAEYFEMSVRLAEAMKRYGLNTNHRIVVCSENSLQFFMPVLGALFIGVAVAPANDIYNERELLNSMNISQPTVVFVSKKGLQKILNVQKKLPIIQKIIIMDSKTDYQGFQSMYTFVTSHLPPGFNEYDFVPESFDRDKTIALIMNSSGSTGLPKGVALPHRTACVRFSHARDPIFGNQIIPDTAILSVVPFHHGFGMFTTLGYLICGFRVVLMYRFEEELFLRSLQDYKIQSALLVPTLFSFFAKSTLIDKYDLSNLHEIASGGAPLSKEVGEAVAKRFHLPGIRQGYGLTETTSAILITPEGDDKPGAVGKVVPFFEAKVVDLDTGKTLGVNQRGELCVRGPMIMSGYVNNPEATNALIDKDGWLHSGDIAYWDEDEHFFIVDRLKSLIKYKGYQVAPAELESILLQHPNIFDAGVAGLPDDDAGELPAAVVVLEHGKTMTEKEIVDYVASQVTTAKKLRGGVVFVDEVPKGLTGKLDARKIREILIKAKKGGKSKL", "experiment": "Thermal shift profiles (Thermofluor assay), FLuc;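 as to all read-outs here: normalized first derivative of fluorescence (dF/dT) at the stated temperature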", "type": "binding", "design": "unit of the concentration uncertain", "details": "52.782 °C; compound 100 (unit uncertain)", "procedure": "Thermal stabilization of proteins in the presence of the ligands were determined using Thermofluor technique. MicroAmp optical 384-well plates (Applied Biosystems by Life Technologies), ViiA 7 real-time PCR instrument (Applied Biosystems by Life Technologies) and SYPRO Orange (Life Technologies) were used to test the samples. The final concentration of the protein, compounds and dye were maintained at 5 µM, 100 µM and 10x respectively in a 20 µL reaction volume. […] Proteins were added to the 384-well plate first followed by the compounds. Samples were incubated for 10 mins at room temperature and protected from light. […] The plate was sealed with a MicroAmp optical adhesive film, centrifuged at 1500 RPM for 2 min, and then loaded onto the ViiA 7 real–time PCR instrument for fluorescence intensity measurements upon heating the sample from 25 to 95 °C at 1 °C/min increments. Data was exported to excel, fluorescence intensity data and its first derivative were normalized and plotted using GraphPad Prism to determine Tm. […]\n6 Read ViiA7 Read the therm al unfolding of the protein with ViiA7 real-tim e PCR system\n4 Prepare 50X dye in PBS: 1 μL Sypro Orange 5000X (Life Technologies), 99 μL ddH2O. Add 4 μL to each well Read the m elting tem perature from 25 to 95 °C using ViiA 7 real tim e PCR instrum ent by following the below instructions Perform therm al denaturation in 384-well assay plate […]"}, "[2]": {"target": "FLuc-C-NLuc (firefly luciferase) (Photinus pyralis, UniProt P08659, form not given/L550V)", "sequence (P08659 2-550 L550V, form open)": "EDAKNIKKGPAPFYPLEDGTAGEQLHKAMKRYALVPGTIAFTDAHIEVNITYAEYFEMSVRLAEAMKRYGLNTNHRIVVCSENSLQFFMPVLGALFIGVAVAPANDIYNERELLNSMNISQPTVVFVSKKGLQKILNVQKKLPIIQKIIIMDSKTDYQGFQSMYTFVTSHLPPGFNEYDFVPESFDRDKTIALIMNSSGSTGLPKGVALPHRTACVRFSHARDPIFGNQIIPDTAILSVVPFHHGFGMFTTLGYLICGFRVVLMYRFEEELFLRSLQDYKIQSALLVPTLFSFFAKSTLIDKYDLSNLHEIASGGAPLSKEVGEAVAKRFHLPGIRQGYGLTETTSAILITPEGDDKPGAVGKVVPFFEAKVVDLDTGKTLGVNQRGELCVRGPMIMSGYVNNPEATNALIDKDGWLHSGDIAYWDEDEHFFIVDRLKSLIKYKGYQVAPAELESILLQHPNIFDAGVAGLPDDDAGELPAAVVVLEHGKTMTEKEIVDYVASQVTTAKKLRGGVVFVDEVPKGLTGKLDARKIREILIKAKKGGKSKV", "experiment": "SDR assay, FLuc-C-NLuc", "details": "for SDR + 10 mM ATP / SDR No ATP: 1 nM FLuc-C-NLuc, normalized activity, Log [Compound]; for SDR+ATP / SDR: Log[Compound]; for SDR+ATP: 10 mM ATP; for SDR: absence of ATP"}},
  "data": [
    {"smiles": "CC(CNC(=O)C1CCN(C(=O)c2ncn3c2COC(c2ccccc2)C3)CC1)c1ccccc1", "note": "(stereo not drawn) [NCGC 00449795]", "values": [
      {"measurement": "Thermofluor FLuc, No ATP", "setting": "[1]", "result": 0.992}
    ]},
    {"smiles": "COc1ccc(NC(=O)C2CCN(C(=O)c3ncn4c3COC(c3ccccc3)C4)CC2)cc1Cl", "note": "(stereo not drawn) [NCGC 00449919]", "values": [
      {"measurement": "Thermofluor FLuc, No ATP", "setting": "[1]", "result": 0.994}
    ]},
    {"smiles": "CC(CNC(=O)C1CCN(C(=O)c2ncn3c2COC(c2ccccc2)C3)CC1)c1ccccc1", "note": "(stereo not drawn) [compound 00449795]", "values": [
      {"measurement": "SDR + 10 mM ATP", "setting": "[2]; M -4.48", "result": 34.2},
      {"measurement": "SDR No ATP", "setting": "[2]; M -4.48", "result": -1.4},
      {"measurement": "SDR + 10 mM ATP", "setting": "[2]; M -4.96", "result": 33.8},
      {"measurement": "SDR No ATP", "setting": "[2]; M -4.96", "result": -2.1},
      {"measurement": "SDR + 10 mM ATP", "setting": "[2]; M -5.44", "result": 30.7},
      {"measurement": "SDR No ATP", "setting": "[2]; M -5.44", "result": -1.5},
      {"measurement": "SDR + 10 mM ATP", "setting": "[2]; M -5.91", "result": 28.0},
      {"measurement": "SDR No ATP", "setting": "[2]; M -5.91", "result": -3.2},
      {"measurement": "SDR + 10 mM ATP", "setting": "[2]; M -6.39", "result": 22.7},
      {"measurement": "SDR No ATP", "setting": "[2]; M -6.39", "result": -2.0},
      {"measurement": "SDR + 10 mM ATP", "setting": "[2]; M -6.87", "result": 5.0},
      {"measurement": "SDR No ATP", "setting": "[2]; M -6.87", "result": -1.8},
      {"measurement": "SDR + 10 mM ATP", "setting": "[2]; M -7.35", "result": 2.2},
      {"measurement": "SDR No ATP", "setting": "[2]; M -7.35", "result": -2.1},
      {"measurement": "SDR + 10 mM ATP", "setting": "[2]; M -7.82", "result": -0.7},
      {"measurement": "SDR No ATP", "setting": "[2]; M -7.82", "result": -1.8},
      {"measurement": "SDR + 10 mM ATP", "setting": "[2]; M -8.30", "result": -0.9},
      {"measurement": "SDR No ATP", "setting": "[2]; M -8.30", "result": -1.6},
      {"measurement": "SDR + 10 mM ATP", "setting": "[2]; M -8.78", "result": -2.4},
      {"measurement": "SDR No ATP", "setting": "[2]; M -8.78", "result": -2.4},
      {"measurement": "Efficacy (%) FLuc-C-NLuc SDR (-ATP)", "setting": "[2]; - ATP", "result": 0.00, "unit": "%"},
      {"measurement": "SDR+ATP", "setting": "[2]; M -4.48", "result": 68.61},
      {"measurement": "SDR", "setting": "[2]; M -4.48", "result": 10.53},
      {"measurement": "SDR+ATP", "setting": "[2]; M -4.96", "result": 61.30},
      {"measurement": "SDR", "setting": "[2]; M -4.96", "result": 11.57},
      {"measurement": "SDR+ATP", "setting": "[2]; M -5.44", "result": 53.17},
      {"measurement": "SDR", "setting": "[2]; M -5.44", "result": 11.00},
      {"measurement": "SDR+ATP", "setting": "[2]; M -5.91", "result": 34.17},
      {"measurement": "SDR", "setting": "[2]; M -5.91", "result": 13.65},
      {"measurement": "SDR+ATP", "setting": "[2]; M -6.39", "result": 20.63},
      {"measurement": "SDR", "setting": "[2]; M -6.39", "result": 10.99},
      {"measurement": "SDR+ATP", "setting": "[2]; M -6.87", "result": 11.14},
      {"measurement": "SDR", "setting": "[2]; M -6.87", "result": 10.66},
      {"measurement": "SDR+ATP", "setting": "[2]; M -7.35", "result": 7.50},
      {"measurement": "SDR", "setting": "[2]; M -7.35", "result": 9.25},
      {"measurement": "SDR+ATP", "setting": "[2]; M -7.82", "result": 9.96},
      {"measurement": "SDR", "setting": "[2]; M -7.82", "result": 13.35},
      {"measurement": "SDR+ATP", "setting": "[2]; M -8.30", "result": 8.11},
      {"measurement": "SDR", "setting": "[2]; M -8.30", "result": 10.95},
      {"measurement": "SDR+ATP", "setting": "[2]; M -8.78", "result": 7.12},
      {"measurement": "SDR", "setting": "[2]; M -8.78", "result": 11.55},
      {"measurement": "SDR+ATP", "setting": "[2]; M -9.25", "result": 7.93},
      {"measurement": "SDR", "setting": "[2]; M -9.25", "result": 9.61}
    ]}
  ]
}
